Results on two compounds are retold here after patent publication US8618169B2, “Derivatives of N-phenylanthranilic acid and 2-benzimidazolone as potassium channel and/or neuron activity modulators” (Ramot at Tel-Aviv University Ltd., priority 2002, dated 2013).

In one assay the test system is COX (Cyclooxygenase). The assay can be described thus: COX activity assay in C-26 cells (PGE2 radioimmunoassay). It is filed as cell-based. As for the experimental part: C-26 cells were plated on 24-well plates using RPMI medium. Different concentrations of the tested compound were added thereto and the cells were incubated for 30 minutes at 37° C. 30 μM exogenic arachidonic acid was then added and incubation was continued for 20 minutes (37° C.), so as to allow the cells to synthesize PGE2. Indomethacin was added thereafter (10 μM), to stop and completely block the activity. Then, the upper solution was removed into clean 24-wells. To the remained cells 100 μl NaOH (1M) were added to induce cytolysis, and the cells were left for later protein measurement. The solution removed to the new 24-well was used for a radioimmunoassay. The COX activity was estimated by calculating the ng PGE2/mg protein parameter.

In another assay the test system is small DRG neurons. The assay can be described thus: Spiking activity of DRG neurons, current-clamp. It is filed as cell-based, mouse. As for the experimental part:
Dorsal root ganglion (DRG) neurons were dissected from 2-4 days-old ICR mice that were decapitated. DRGs were placed in Hank's balanced saline solution (HBSS) and were prepared by enzymatic dissociation. Briefly, cells were incubated for 30 minutes in 5 mg/ml dispase (Sigma), 2 mg/ml collagenase type 1A (Sigma) and 0.1 mg/ml DNase (Invitrogen/Gibco) in calcium and magnesium-free HBSS, and the ganglia were thereafter mechanically triturated with a firepolished glass Pasteur pipette. The ganglia were then centrifuged for 5 minutes at 80×g and resuspended in DMEM supplemented with 2 mM L-glutamine, 16.5 mM NaCO3, 6 g/l glucose, 5 ml penicillin/streptomycin and 10% fetal calf serum. For electrophysiological recording, dissociated neurons were plated on 13 mm glass coverslips previously coated with poly-D-lysine (1 mg/ml) and laminin (10 μg/ml) and were used after 2-6 days in culture.
For current measurements in CHO cells, recordings were performed 40 hours following transfection, using the whole-cell configuration of the patch-clamp technique [Hamill et al., Nature 294: 462-464 (1981)]. Signals were amplified using an Axopatch 200B patch-clamp amplifier (Axon Instruments, Foster City, Calif., USA), sampled at 2 kHz and filtered at 800 Hz via a 4-pole Bessel low pass filter. Data were acquired using pClamp 8.1 software (Axon Instruments, Foster City, Calif., USA) and an Elonex Pentium III computer in conjunction with a DigiData 1322A interface (Axon Instruments, Foster City, Calif., USA). The patch pipettes were pulled from borosilicate glass (Warner Instrument. Corp., Hamden, Conn., USA) with a resistance of 2-5 MΩ and were filled with (in mM): 130 KCl, 1 MgCl2, 5 K2ATP, 5 EGTA, 10 HEPES, adjusted with KOH at pH 7.4 (290 mOsm). The external solution contained (in [mM]): 140 NaCl, 4 KCl, 1.8 CaCl2, 1.2 MgCl2, 11 glucose, 5.5 HEPES, adjusted with NaOH at pH 7.4 (310 mOsm). Series resistances (3-13 MΩ) were compensated (75-90%) and periodically monitored. […]

The target in the next assay is T1, homomeric KCNQ2 channels (Homo sapiens, UniProt O43526).
T1 construct: expressed in transfected cells; host or cells: CHO cells
Put plainly: Homomeric KCNQ2 channels expressed in CHO cells, patch-clamp. It is filed as cell-based. The note with it: 50 μM.

A further assay concerns the target T2, KCNQ1 (Homo sapiens, UniProt P51787).
T2 construct: expressed in transfected cells; host or cells: Xenopus oocytes (cRNA microinjection)
Put plainly: KCNQ1 current amplitude in Xenopus oocytes. It is filed as cell-based. As to conditions: 50 μM, test potentials −50 to 0 mV, data not shown. As for the experimental part:
Briefly, two-electrode voltage-clamp measurements were performed 3-5 days following cRNA microinjection into oocytes. Oocytes were bathed in a modified ND96 solution containing (in mM): 96 NaCl, 2 KCl, 1 MgCl2, 0.1 CaCl2 and 5 HEPES titrated to pH=7.4 with NaOH. Whole-cell currents were recorded at room temperature (20° C.-22° C.) using a GeneClamp 500 amplifier (Axon Instruments, Foster City, Calif., USA). […] Current signals were filtered at 0.5 kHz and digitized at 2 kHz.
Data are expressed as mean±SEM of 5-8 separate experiments.
The current amplitude of the various channels was measured from a −80 mV holding potential.

Each structure is given as a SMILES string. Some results are limits rather than exact numbers.

The term IC50 denotes the concentration at which inhibition is half-maximal. A high value points to lower potency. As for `O=C(Cc1ccccc1Nc1c(Cl)cccc1Cl)NCCOCCO` [Compound 6], in the assay on COX (Cyclooxygenase), the “COX inhibition activity (in words)” value is recorded as “do not exhibit COX inhibition activity”. Also, the IC50 in the assay on COX (Cyclooxygenase) (C-26 cells) is greater than 30 µM. For the same compound, the “effect on COX activity” value in the assay with COX (Cyclooxygenase) (concentration of up to 10 μM) was “did not block”. In addition, the “effect on trains of evoked spikes” value in the assay on small DRG neurons (15 μM, 75 pA, 400 ms) was “potently and reversibly blocked”. The “effect on solitary evoked spike” value in the assay with small DRG neurons (300 pA, 1 ms pulse) is “reversibly prevent the generation of the single action potential”.
With `Cc1ccc(Cl)c(Nc2ccccc2C(=O)O)c1Cl` [Compound 1, Meclofenamic acid], at homomeric KCNQ2 channels (CHO cells), the “leftward shift in the activation curve of KCNQ2 channels” value is on record as −26.9 mV. In addition, the “increase of KCNQ2 current amplitude” value on homomeric KCNQ2 channels (stepped from −85 mV to −40 mV) came out at 240±26%. Besides, the “time constant of deactivation τdeact of KCNQ2 with compound” value on homomeric KCNQ2 channels (control 92.6±3.9 msec) was found to be 152.7 ± 4.9 ms. Besides, the “V50 of KCNQ2 activation with compound” value on homomeric KCNQ2 channels (control −23.6±2.2 mV) is on record as −50.5±1.4 mV. Moreover, the “effect on homomeric KCNQ1 currents” value at KCNQ1 was “not enhanced”.
